Reference: US20070036793A1, “Methods for use of an lkb1/strad7mo25 complex” (priority 2003, published 2007)
“Also recorded” adds a separate entry of the source.

Experiments:
[1] = molecular target: T1, AMPK (Homo sapiens, UniProt Q13131); assay: Activation and Thr-172 phosphorylation of endogenous AMPK in HeLa cells with or without stably expressed LKB1; assay type: cell-based; settings: 2 mM AICA riboside or 10 mM phenformin, 60 min
T1 construct: Endogenous AMPK was immunoprecipitated from the cell extracts and assayed; endogenous in cells; host or cells: HeLa cells (control, or stably expressing wild type or kinase-dead LKB1)
T1 sequence (Q13131 whole entry): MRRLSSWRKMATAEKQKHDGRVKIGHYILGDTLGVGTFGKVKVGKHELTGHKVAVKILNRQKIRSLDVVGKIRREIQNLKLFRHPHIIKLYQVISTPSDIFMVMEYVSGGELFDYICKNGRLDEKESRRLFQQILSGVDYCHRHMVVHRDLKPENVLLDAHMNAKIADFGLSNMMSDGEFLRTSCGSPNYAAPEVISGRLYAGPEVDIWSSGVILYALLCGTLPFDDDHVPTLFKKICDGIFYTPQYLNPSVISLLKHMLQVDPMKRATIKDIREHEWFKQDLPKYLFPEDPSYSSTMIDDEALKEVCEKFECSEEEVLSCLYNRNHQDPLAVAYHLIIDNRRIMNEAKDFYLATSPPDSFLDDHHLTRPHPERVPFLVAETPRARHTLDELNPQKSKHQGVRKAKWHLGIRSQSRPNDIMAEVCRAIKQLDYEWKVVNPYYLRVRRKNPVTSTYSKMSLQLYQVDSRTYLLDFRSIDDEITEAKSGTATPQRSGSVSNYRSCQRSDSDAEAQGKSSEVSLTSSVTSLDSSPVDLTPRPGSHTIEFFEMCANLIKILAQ
T1 sequence (Q9Y478 2-270 partner limits assumed): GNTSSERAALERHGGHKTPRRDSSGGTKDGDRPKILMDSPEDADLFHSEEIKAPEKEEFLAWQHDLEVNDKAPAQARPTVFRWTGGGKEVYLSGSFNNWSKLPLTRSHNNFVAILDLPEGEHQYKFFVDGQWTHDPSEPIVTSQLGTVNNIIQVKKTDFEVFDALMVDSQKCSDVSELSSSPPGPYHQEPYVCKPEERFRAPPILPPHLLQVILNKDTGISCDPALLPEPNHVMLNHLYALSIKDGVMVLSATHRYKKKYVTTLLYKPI
T1 sequence (P54619 whole entry partner): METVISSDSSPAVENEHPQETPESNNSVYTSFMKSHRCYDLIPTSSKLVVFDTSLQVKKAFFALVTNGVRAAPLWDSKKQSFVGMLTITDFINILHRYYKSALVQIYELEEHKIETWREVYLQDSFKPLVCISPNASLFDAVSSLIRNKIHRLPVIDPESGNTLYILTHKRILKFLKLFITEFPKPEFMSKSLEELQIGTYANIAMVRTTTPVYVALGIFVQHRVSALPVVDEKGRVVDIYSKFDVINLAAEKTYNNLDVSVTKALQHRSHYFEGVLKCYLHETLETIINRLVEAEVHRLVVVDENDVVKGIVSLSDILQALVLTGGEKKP
Protocol: FIG. 18: Restoration of the ability of AMPK to be activated by AICA riboside and phenformin in HeLa cells by expression of LKB1. Control HeLa cells (lanes 1, 2, 3), HeLa cells expressing wild type (WT) LKB1 (lanes 4, 5, 6) and kinase dead (D194A, KD) mutant LKB1 (lanes 7, 8, 9) were either left unstimulated or treated with 2 mM AICA riboside or 10 mM phenformin for 60 min and lysed. (A) Endogenous AMPK was immunoprecipitated from the cell extracts and assayed. (B) The cell lysates was immunoblotted with antibodies recognising AMPKα1 phosphorylated at Thr172 or total AMPKα1; the results were analysed using the LI-COR IR Odyssesy™ imager as described under Materials and Methods, and are expressed as a ratio of the two signals. (C) The cell lysates was analysed by Western blotting and the membranes probed with antibodies recognising ACC phosphorylated at Ser-79, or streptavidin to determine total […]. The results were analysed using the LI-COR IR imager as for (B).
AMPK [14]and AMPKK [34] were assayed, and units defined, as described previously. Rapid lysis of cells for AMPK assays was as described previously. Assays were carried out in triplicate and results are expressed as mean ± standard deviation.
To analyse phosphorylation of ACC, samples were analysed by SDS-PAGE, transferred to nitrocellulose (BioRad) and incubated in Odyssey™ Blocking buffer containing 0.2% Tween-20 for 1 h. Anti-pACC antibody (1.46 μg/ml in blocking buffer) was then added and left shaking for 1 h. The membranes were washed 6×5 min with TBS (10 mM Tris-HCl, pH 7.4, 0.5M NaCl) plus Tween-20 (0.2%). The membranes were immersed in blocking buffer containing 0.2% Tween-20 and 1 μg/ml anti-sheep IgG conjugated to JR dye 680 (Molecular Probes, Leiden, The Netherlands) and 1 μg/ml streptavidin conjugated to IR Dye 800 (Rockland Inc., Philadelphia, Pa.) and left shaking for 1 h, protected from light. The membranes were then washed 6×5 min using TBS-Tween (0.2%) and 1×5 min in PBS. The membranes were scanned in two different channels using the Odyssey™ IR imager, the results quantified using Odyssey™ software and expressed as a ratio of the signal obtained with the pACC antibody to that obtained with streptavidin. Analysis of phosphorylation of GST-α1 catalytic domain was similar except that the 4-12% Bis-Tris gels were used, and the membranes were simultaneously probed for 1 h with the sheep anti-pT172 and anti-AMPKα1-catalytic domain antibodies, directly labelled with the IR dye 680 and IR Dye 800 respectively, according to manufacturers' instructions.

[2] = molecular target: T1, AMPK; assay: as above; assay type: cell-based; settings: earlier unpublished results
[3] = tested on: AMPK-related kinases (NUAK2, QIK, QSK, SIK, MARK1, MARK2/3, MARK4); assay: Activity of endogenous AMPK-related kinases immunoprecipitated from HeLa cells after phenformin; assay type: cell-based, human; settings: HeLa cells (control, wild type or kinase inactive LKB1), 10 mM phenformin, 1 h
Protocol: FIG. 29. Activity of AMPK-related kinases In HeLa cells. […] AMPKα1 and AMPK-related kinases were immunoprecipitated from the cell lysates, and in vitro kinase activity towards the AMARA peptide was measured as described in Materials and Methods (Example 4). To confirm equal expression of the kinases in each sample, cell lysates (AMPKα1, MARK2/3 and MARK4) or immunoprecipitated proteins (NUAK2, QIK, QSK, SIK and MARK1) were subjected to SDS-PAGE and western immunoblot analysis. All AMPK-related kinases migrated with the expected molecular mass. In the case of AMPKα1, cell lysates were immunoblotted with a pThr172 antibody (P-AMPK), that recognises the phosphorylated T-loop. Results shown are average + SD of 2-4 assays and are representative of at least two independent experiments.
Cell culture, stimulation and cell lysis. […] Protein concentrations were determined by the Bradford method with bovine serum albumin as the standard (Bradford, 1976).
0.1-1 mg of Hela or MEF lysate protein was incubated at 4° C. for 1 h on a shaking platform with 5 μg of the corresponding antibody, which had been previously conjugated to 5 μl of protein G-Sepharose. The immunoprecipitates were washed twice with 1 ml of Lysis Buffer containing 0.5 M NaCl, and twice with 1 ml of Buffer A. Phosphotransferase activity towards the AMARA peptide was then measured in a total assay volume of 50 μl as described above.

[4] = tested on: AMPK; assay: AMPK activation by drugs in other cell types; assay type: cell-based
[5] = HeLa cells stably expressing wild type LKB1
[6] = control HeLa cells not expressing LKB1

Question: Which results are given for `NC(=O)c1ncn([C@@H]2O[C@H](CO)[C@@H](O)[C@H]2O)c1N` [AICA riboside, 5-aminoimidazole-4-carboxamide (AICA) riboside]?
Answer: activation of AMPK [1, 5]: robust activation; phosphorylation of Thr-172 on the AMPKα subunit [1, 5]: restored; activation of AMPK [1, 6]: neither AICA riboside nor phenformin activated AMPK; activation of AMPK [2]: not activated

Question: Which “activation of AMPK” value [1, 5] does the source give for `[H]/N=C(/N)N/C(=N/[H])NCCc1ccccc1` [phenformin] here?
Answer: Its value is “robust activation; also recorded: larger activation of AMPK”.

Question: And the “phosphorylation of Thr-172 on the AMPKα subunit” value [1, 5]?
Answer: The value was “restored”.

Question: What about the “activation of AMPK” value [1, 6] of the same molecule?
Answer: The value was “neither AICA riboside nor phenformin activated AMPK”.

Question: What about the “activity of AMPK-related kinases” value [3] of the same molecule?
Answer: Its value is “none of the AMPK-related kinases were significantly activated”.

Question: What about the “activation of AMPK compared with metformin” value [4] of the same molecule?
Answer: Its value is “more rapidly and more potently than metformin”.
